test: gradient 5% acetonitrile 3 min, to 50% in 2 min, to 85% in 15 min, held 3 min, 100 µL/min; settings: column: Zorbax Extend-C18 2.1 x 50 mm; eluents: water / acetonitrile, 0.1% formic acid
In short: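 A Zorbax Extend-C18 column (2.1 × 50 mm, 1.8 μm) run at 100 μL/min with water and acetonitrile, both containing 0.1% formic acid, separated mixtures of ~100 pure standards. The HPLC was coupled to a quadrupole time-of-flight mass spectrometer operated in positive and negative ionization mode, with dead and dwell volumes of 40 μL and 900 μL. Each retention time was taken from a computationally picked adduct peak that was then manually inspected.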

Row | Structure (SMILES) | RP-LC retention time [s]
1 | CCCCNC(=O)C1CCN(C(=O)c2ncn3c2COC(c2ccc(F)cc2)C3)CC1 (centres undefined) | 722
2 | CC1(C(=O)NC2CCCC2)CN(S(=O)(=O)c2ccccc2)CC(=O)N1c1ccc(Cl)cc1 (centres undefined) | 950
3 | CN1C(=O)c2cccnc2Sc2cc(NC(=O)C3CCOC3)ccc21 (centres undefined) | 619
4 | COCCN1C(=O)CCC2(CNC(=O)c3cnc(C)cn3)CCC=C12 (centres undefined) | 676
5 | CCCOc1cccc2c1CCN(Cc1ccc(F)cc1)C2=O | 1040
6 | COc1ccc(-c2noc(Cn3cnc4c(cnn4-c4ccc(F)cc4)c3=O)n2)cc1OC | 930
7 | COc1ccc(C)cc1NS(=O)(=O)c1ccc2c(c1)C(=O)N(C)c1ncccc1O2 | 933
8 | Cc1[nH]nc(-c2c(C)sc(C)c2S(=O)(=O)NCc2ccc(Br)cc2)c1C | 1130
9 | Cc1noc(C2(NC(=O)c3sccc3C)CCCCC2)n1 | 882
10 | Cc1ccc(C(=O)N2C[C@@H](F)C[C@H]2C(=O)N2CCOCC2)cc1 | 621
11 | CC1(C)C(=O)N(CC(=O)Nc2ccc3c(c2)OCCO3)c2ccccc21 | 823
12 | C[C@@H](NC(=O)c1ccccc1F)C(=O)NCc1cscn1 | 620
13 | Cc1ccc(CNS(=O)(=O)c2cc(-c3nc(C)c(C)s3)cs2)cc1 | 1040
14 | CC(=O)N1CCc2cc(N3CC(C(=O)Nc4ccc(Cl)cc4)CC3=O)ccc21 (centres undefined) | 750
15 | O=C(Nc1cccc(OCc2nnc(-c3ccccc3)o2)c1)c1cncc(Br)c1 | 912
16 | CC(C)OCCCNC(=O)c1ccc2c(=O)n(-c3ccccc3)c(N3CCCC3)nc2c1 | 777
17 | O=C(NCCc1csc(C2CCN(C(=O)C3CCCO3)CC2)n1)C1CCC1 (centres undefined) | 626
18 | O=C(NCc1ccc(F)cc1)Nc1ccc2c(c1)CCN2S(=O)(=O)c1ccccc1 | 904
19 | Cc1ccccc1CNC(=O)C1CCCN(c2nnc(C)c3c(C)n(-c4ccccc4)nc23)C1 (centres undefined) | 727
20 | CCOC(=O)c1[nH]c(C)c(CCC(=O)N2CCC(C(=O)NCc3ccc(OC(C)C)cc3)CC2)c1C | 850
21 | Cc1ccc(NC(=O)Cn2cnc3c(-c4ccccc4)csc3c2=O)c(Cl)c1 | 965
22 | O=C(Nc1cccc(OCc2nnc(-c3ccc(Cl)cc3)o2)c1)c1ccoc1 | 970
23 | CCCCCCNC(=O)C1CCCN(c2ncc(-c3ccc(F)cc3)cn2)C1 (centres undefined) | 1160

Row | Structure (SMILES) | RP-LC retention time [s]
24 | Cc1nc(CC(=O)NCc2ccc(F)c(Cl)c2)sc1C(=O)NC1CC1 | 708
25 | COc1ccccc1-n1nnc(C(=O)OCc2nc(-c3cccc(Cl)c3)oc2C)c1C | 1160
26 | COc1cc(OC)c(NC(=O)N(C)CCc2noc(-c3ccc(F)cc3)n2)cc1Cl | 943
27 | O=C(Nc1ccccc1NC(=O)c1ccc(Br)o1)c1ccsc1 | 806
28 | COc1ccc(OC)c(NC(=O)CCc2c(-c3ccc(F)cc3)nc3ccccn23)c1 | 665
29 | Cc1nn(CC(=O)NCCCN2CCCC2=O)c(=O)c2nn(-c3ccccc3)c(C)c12 | 642
30 | Cc1ccccc1CNC(=O)C1CCN(S(C)(=O)=O)c2ccccc2O1 (centres undefined) | 841
31 | C=CCN1C(=O)C2(c3cc(Br)ccc31)c1[nH]c3ccccc3c1CCN2C(C)=O (centres undefined) | 929
32 | O=C1CCCCC(Cc2ccccc2)(C(=O)NCCc2c[nH]c3ccccc23)N1 (centres undefined) | 791
33 | COc1ccc(CN2CN=C(Nc3nc(C)c4cc(C)ccc4n3)NC2)cc1 | 766
34 | Nc1nc(Cl)nc2c1ncn2[C@@H]1O[C@H](CO)[C@@H](O)[C@@H]1F | 600
35 | O=S(=O)(c1cccs1)N1CCN(c2ncccn2)CC1 | 754
36 | O=C(c1cccn1Cc1noc(-c2ccc(Cl)cc2)n1)N1CCCC1 | 1020
37 | CCc1nn2c(=O)cc(CSc3nnc(-c4ccc5c(c4)OCO5)o3)nc2s1 | 743
38 | CCOc1ccc(-c2noc(CN3C(=O)COc4ccc(S(=O)(=O)CC)cc43)n2)cc1 | 944
39 | O=c1ccc(-c2nc(-c3ccc(F)cc3)no2)nn1Cc1cc(F)cc(F)c1 | 1110
40 | O=S(=O)(c1ccc2nc(N3CCN(C4CCCCC4)CC3)cnc2c1)N1CCCCC1 | 705
41 | c1ccc2c(N3CCOCC3)nnc(N3CCCC3)c2c1 | 574
42 | O=C(C1CCN(c2cncnc2N2CCOCC2)CC1)N1CCC(Cc2ccccc2)CC1 | 700
43 | CC1CCN(c2nccnc2Oc2ccc(C(=O)NCc3ccco3)cc2)CC1 | 979
44 | O=C(NCc1ccccc1C(F)(F)F)c1cnc(-c2ccccc2)nc1-c1ccncc1 | 924
45 | Cc1ccc(-c2nc3ncccn3c2NCc2ccc(F)cc2)cc1C | 789
46 | CN(C)C(CNC(=O)c1ccccc1C(F)(F)F)c1cn(C)c2ccccc12 (centres undefined) | 602

Row | Structure (SMILES) | RP-LC retention time [s]
47 | COc1ccccc1NC(=O)C(C)C1CCN(C(=O)Nc2ccc(Cl)cc2)CC1 (centres undefined) | 938
48 | CNC(=O)[C@@H]1C[C@H](Oc2ccccc2)CN1S(=O)(=O)N(C)C | 702
49 | CNC(=O)N1CCc2c(c(-c3nc(-c4cccc(F)c4)no3)nn2C)C1 | 738
50 | O=C(NC1CCCCC1)c1cc2ccccc2cc1O | 1180
51 | COc1ccc(CNC(=O)Cn2c(=O)cc(-c3nc(C4CC4)no3)c3ccccc32)cc1 | 888
52 | CCCC(=O)Nc1nc(C(=O)OCC)cs1 | 700
53 | CCOC(=O)c1cc(S(=O)(=O)N2CCCC2C(=O)Nc2cc(F)ccc2F)cn1C (centres undefined) | 982
54 | CCOC(=O)c1nc(Nc2ccc(C)cc2Cl)c2ccccc2n1 | 929
55 | CC(C)Cn1nc2c(S(=O)(=O)N3CCN(c4ccc(F)cc4)CC3)cccn2c1=O | 914
56 | CCOc1ccc(S(=O)(=O)NCCn2nc(C)cc2C)cc1F | 731
57 | CC(C)CC(=O)Nc1ccc(-n2cnc(C(=O)N3CCC4(CC3)OCCO4)c2)nc1 | 677
58 | Cc1noc(-c2cc(=O)n(CC(=O)Nc3cccc(C(C)C)c3)c3ccccc23)n1 | 996
59 | COc1ccc(OC)c(Nc2c(-c3ccc(C)cc3)nc3cnccn23)c1 | 911
60 | CCN(CC)C(=O)c1c2c(nc3ccccc13)CCCC2 | 605
61 | CCNc1cc(N2CCC(CCC(=O)NC(C)C)CC2)ncn1 | 598
62 | CCn1c(=O)c2ccccc2n(Cc2nc(-c3ccc4c(c3)OCO4)no2)c1=O | 960
63 | Cc1nc(-c2ccnc(N3CCOCC3)c2)no1 | 614
64 | COc1cccc(CN2CCc3nn(CC4CC4)c(=O)n3CC2)n1 | 595
65 | Cc1nc(-c2csc(S(=O)(=O)N3CCCC(C(=O)NCCN4CCCCCC4)C3)c2)no1 (centres undefined) | 665
66 | CNc1nccc(N2CCC(CC(=O)NCCCN3CCCC3=O)CC2)n1 | 490
67 | CC(=O)N1CCc2cc(C(=O)N3CCCCCC3)ccc21 | 723
68 | COc1ccc(-c2noc(CN3N=NC4C(=O)N(c5cccc(Cl)c5)C(=O)C43)n2)c(OC)c1 (centres undefined) | 912
69 | COc1ccc(-c2ccc(=O)n(CCNC(=O)NC3CCCCC3)n2)cc1 | 681

Row | Structure (SMILES) | RP-LC retention time [s]
70 | CCn1cc(-c2ccc(Cl)cc2)cc1C(=O)N1CCN(C(C)C)CC1 | 717
71 | COc1ccc(OC)c(NC(=O)N2CCC(N3CCN(Cc4ccccc4)C(=O)C3=O)CC2)c1 | 746
72 | COc1cc(NS(=O)(=O)c2cc3n(c2)CCN(C)C3=O)cc(OC)c1 | 671
73 | O=C(CCCc1ccccc1)N1CCN(c2nc(CN3CCCCC3)cs2)CC1 | 692
74 | COc1ccc(NC(=O)N2CCN(Cc3nc4ccccc4o3)CC2)cc1 | 642
75 | CCN(CC)S(=O)(=O)c1ccc(NC(=O)N2CCCC(C(=O)Nc3ccc(OC)cc3)C2)s1 (centres undefined) | 884
76 | CCCn1cc(CCNS(=O)(=O)c2ccc(F)c(F)c2)c2cccnc21 | 884
77 | O=C(Cn1cccc(-c2nc(-c3ccccc3)no2)c1=O)Nc1ccc(Br)cc1 | 968
78 | CSc1cccc(NC(=O)NCC(c2cccnc2)c2c[nH]c3ccccc23)c1 (centres undefined) | 677
79 | COC(=O)c1c(C)c(C(=O)C(C)N(C(=O)c2ccc(Cl)cc2)C2CC2)c(C)n1C (centres undefined) | 1030
80 | O=C(Cc1csc(NC(=O)C2CC2)n1)NCc1ccccn1 | 519
81 | Cc1ccnc(N2CCCC(C(=O)N3CCC(Cc4ccccc4)CC3)C2)n1 (centres undefined) | 987
82 | COc1ccc(OC)c(NC(=O)C2c3ccccc3C(=O)N3CCc4cc(OC)c(OC)cc4C23)c1 (centres undefined) | 829
83 | COc1ccc(C2CN(S(=O)(=O)c3ccccc3F)CCN2C)cc1 (centres undefined) | 670
84 | O=C(CC1CCCN(c2cn[nH]c(=O)c2)C1)N1CCSCC1 (centres undefined) | 617
85 | O=C(NCC1CCCO1)C1COC2(CCN(C(=O)c3ccccc3F)CC2)N1C(=O)c1ccccc1 (centres undefined) | 673
86 | Cc1ccc2c(=O)c3c([nH]c2c1C)CCN(CC(=O)Nc1ccc(F)cc1)C3 | 626
87 | Cn1c(=O)sc2cc(S(=O)(=O)N3CCC(C(=O)Nc4cccc(C#N)c4)CC3)ccc21 | 860
88 | O=c1ccc(N2CCC(NS(=O)(=O)c3ccc(F)c(F)c3)CC2)nn1CC1CC1 | 834
89 | CCOc1ccc(CNC(=O)C2CCN(S(=O)(=O)c3ccc4c(c3)NC(=O)CO4)CC2)cc1 | 880

Source: the METLIN SMRT retention time set (Domingo-Almenara et al. 2019)
